Molecules are shown by their SMILES.

We go through 14 compounds from US6114371A, “3-(cyclohexanoheteroarylidenyl)-2-indolinone protein tyrosine kinase inhibitors” (Sugen, Inc., priority 1998, dated 2000).

The target in assay [1] is T1, PDGFr (Homo sapiens, UniProt P09619). The assay is described as follows: PDGF-R ELISA. Details: cells (U1242, obtained from Joseph Schlessinger, NYU); endogenous in cells; host or cells: U1242. It is filed as cell-based. Background: In an ELISA, binding on a coated surface is turned into a signal by an enzyme label.
T1 sequence (P09619 33-1106): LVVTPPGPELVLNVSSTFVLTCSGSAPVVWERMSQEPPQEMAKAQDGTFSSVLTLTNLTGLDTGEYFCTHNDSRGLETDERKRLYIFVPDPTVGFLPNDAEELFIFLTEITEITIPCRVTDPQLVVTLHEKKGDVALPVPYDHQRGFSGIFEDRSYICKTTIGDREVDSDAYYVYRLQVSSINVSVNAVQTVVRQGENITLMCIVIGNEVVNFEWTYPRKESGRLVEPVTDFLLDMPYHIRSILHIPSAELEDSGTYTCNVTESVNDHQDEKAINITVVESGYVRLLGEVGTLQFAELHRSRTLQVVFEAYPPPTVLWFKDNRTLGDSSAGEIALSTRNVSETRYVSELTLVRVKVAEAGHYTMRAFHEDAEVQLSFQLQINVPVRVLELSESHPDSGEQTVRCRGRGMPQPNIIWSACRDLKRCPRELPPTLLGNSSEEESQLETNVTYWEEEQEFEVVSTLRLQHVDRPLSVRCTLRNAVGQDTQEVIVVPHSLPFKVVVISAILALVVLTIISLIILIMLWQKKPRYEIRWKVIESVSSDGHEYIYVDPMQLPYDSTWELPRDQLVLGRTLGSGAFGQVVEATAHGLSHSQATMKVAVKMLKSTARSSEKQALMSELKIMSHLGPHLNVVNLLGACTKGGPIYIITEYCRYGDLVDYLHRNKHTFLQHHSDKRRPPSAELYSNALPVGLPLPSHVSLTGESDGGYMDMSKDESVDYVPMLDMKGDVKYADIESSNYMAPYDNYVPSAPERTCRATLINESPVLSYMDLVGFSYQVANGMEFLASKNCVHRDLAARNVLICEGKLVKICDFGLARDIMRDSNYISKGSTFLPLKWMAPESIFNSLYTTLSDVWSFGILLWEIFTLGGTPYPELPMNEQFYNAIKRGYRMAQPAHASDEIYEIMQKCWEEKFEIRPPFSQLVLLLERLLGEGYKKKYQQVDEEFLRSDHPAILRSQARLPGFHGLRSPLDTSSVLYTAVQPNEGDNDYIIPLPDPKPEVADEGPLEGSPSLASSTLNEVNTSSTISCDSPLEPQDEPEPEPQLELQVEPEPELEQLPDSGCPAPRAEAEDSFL
Procedure: All cell culture media, glutamine, and fetal bovine serum can be purchased from Gibco Life Technologies (Grand Island, N.Y.) unless otherwise specified. […] All cell lines are routinely subcultured twice a week and are negative for mycoplasma as determined by the Mycotect method (Gibco).
For ELISA assays, cells (U1242, obtained from Joseph Schlessinger, NYU) are grown to 80-90% confluency in growth medium (MEM with 10% FBS, NEAA, 1 mM NaPyr and 2 mM GLN) and seeded in 96-well tissue culture plates in 0.5% serum at 25,000 to 30,000 cells per well. After overnight incubation in 0.5% serum-containing medium, cells are changed to serum-free medium and treated with test compound for 2 hr in a 5% CO2, 37° C. incubator. […] Lysates are incubated with shaking for 1 hour at room temperature. The plates are washed with TBST four times and then incubated with polyclonal anti-phosphotyrosine antibody at room temperature for 30 minutes. Excess anti-phosphotyrosine antibody is removed by rinsing the plate with TBST four times. Goat anti-rabbit IgG antibody is added to the ELISA plate for 30 min at room temperature followed by rinsing with TBST four more times. […] Absorbance at 410 nm with a reference wavelength of 630 nm is recorded about 15 to 30 min after ABTS addition.
The next assay deals with EGFr (Homo sapiens, UniProt P00533). The assay is described as follows: EGF-induced BrdU incorporation assay. The note with it: Table 8. It counts as cell-based. Background: Uptake of a labelled nucleoside into DNA is a usual measure of proliferation.
EGFr, sequence (P00533 25-1210): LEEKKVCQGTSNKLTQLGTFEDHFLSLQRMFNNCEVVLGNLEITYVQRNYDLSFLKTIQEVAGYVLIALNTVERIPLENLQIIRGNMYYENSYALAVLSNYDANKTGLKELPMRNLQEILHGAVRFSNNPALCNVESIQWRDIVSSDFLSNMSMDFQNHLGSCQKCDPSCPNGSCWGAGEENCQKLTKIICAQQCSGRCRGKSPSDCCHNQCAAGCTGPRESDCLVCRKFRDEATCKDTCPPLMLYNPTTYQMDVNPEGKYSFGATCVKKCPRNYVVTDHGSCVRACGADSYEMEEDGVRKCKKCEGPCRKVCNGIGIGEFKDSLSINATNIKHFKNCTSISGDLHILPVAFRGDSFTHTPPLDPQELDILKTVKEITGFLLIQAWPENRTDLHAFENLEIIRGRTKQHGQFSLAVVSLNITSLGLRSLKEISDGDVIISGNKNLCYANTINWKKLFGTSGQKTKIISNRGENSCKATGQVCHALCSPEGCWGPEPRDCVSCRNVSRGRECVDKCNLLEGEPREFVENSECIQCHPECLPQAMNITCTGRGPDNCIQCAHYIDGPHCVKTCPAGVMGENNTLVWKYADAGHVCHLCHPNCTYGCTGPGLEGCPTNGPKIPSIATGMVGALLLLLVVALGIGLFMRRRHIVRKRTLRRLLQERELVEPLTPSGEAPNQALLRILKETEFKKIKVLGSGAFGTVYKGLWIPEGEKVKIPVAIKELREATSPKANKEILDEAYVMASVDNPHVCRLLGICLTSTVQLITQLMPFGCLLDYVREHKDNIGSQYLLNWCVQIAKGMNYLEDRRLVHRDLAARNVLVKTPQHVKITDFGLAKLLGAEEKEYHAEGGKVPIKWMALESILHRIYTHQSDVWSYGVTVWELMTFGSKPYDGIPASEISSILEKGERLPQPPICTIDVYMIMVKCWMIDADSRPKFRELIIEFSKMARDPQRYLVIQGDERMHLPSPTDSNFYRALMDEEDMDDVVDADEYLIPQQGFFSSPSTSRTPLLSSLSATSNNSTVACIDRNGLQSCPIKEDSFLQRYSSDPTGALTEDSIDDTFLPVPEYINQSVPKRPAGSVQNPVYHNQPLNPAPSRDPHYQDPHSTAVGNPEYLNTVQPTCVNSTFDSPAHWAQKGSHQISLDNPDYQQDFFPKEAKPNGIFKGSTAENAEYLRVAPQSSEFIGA
Another assay deals with FGFr. The assay is described as follows: FGF-induced BrdU incorporation assay. The following applies: Table 8. It counts as cell-based.
The test system of the next assay is HUV-EC-C cells. In words: HUV-EC-C assay, aFGF (3H-thymidine incorporation). It counts as cell-based, human. The following applies: Homo sapiens, Table 9; aFGF (ECGF)-stimulated HUV-EC-C, 3H-thymidine; read-out: aFGF IC50. Here is the method:
The following protocol may also be used to measure a compound's activity against PDGF-R, FGF-R, VEGF, aFGF or Flk-1/KDR, all of which are naturally expressed by HUV-EC cells.
1. […] After cells have detached from the flask, add an equal volume of assay medium and transfer to a 50 mL sterile centrifuge tube (Fisher Scientific; catalogue no. 05-539-6).
1. Make up two-fold drug titrations in separate 96-well plates, generally 50 μM on down to 0 μM. Use the same assay medium as mentioned in day 0, step 2 above. Titrations are made by adding 90 μl/well of drug at 200 μM (4×the final well concentration) to the top well of a particular plate column. Since the stock drug concentration is usually 20 mM in DMSO, the 200 μM drug concentration contains 2% DMSO.
Therefore, diluent made up to 2% DMSO in assay medium (F12K+0.5% fetal bovine serum) is used as diluent for the drug titrations in order to dilute the drug but keep the DMSO concentration constant. Add this diluent to the remaining wells in the column at 60 μl/well. Take 60 μl from the 120 μl of 200 μM drug dilution in the top well of the column and mix with the 60 μl in the second well of the column. Take 60 μl from this well and mix with the 60 μl in the third well of the column, and so on until two-fold titrations are completed. When the next-to-the-last well is mixed, take 60 μl of the 120 μl in this well and discard it. Leave the last well with 60 μl of DMSO/media diluent as a non-drug-containing control. Make 9 columns of titrated drug, enough for triplicate wells each for 1) VEGF (obtained from Pepro Tech Inc., catalogue no. 100-200, 2) endothelial cell growth factor (ECGF) (also known as acidic fibroblast growth factor, or aFGF) (obtained from Boehringer Mannheim Biochemica, catalogue no. 1439 600); or, 3) human PDGF B/B (1276-956, Boehringer Mannheim, Germany) and assay media control. ECGF comes as a preparation with sodium heparin.
2. Transfer 50 μl/well of the drug dilutions to the 96-well assay plates containing the 0.8-1.0×10^4 cells/100 μl/well of the HUV-EC-C cells from day 0 and incubate ~2 h at 37° C., 5% CO2.
3. In triplicate, add 50 μl/well of […] VEGF, 20 ng/mL ECGF, or media control to each drug condition. As with the drugs, the growth factor concentrations are 4×the desired final concentration. Use the assay media from day 0 step 2 to make the concentrations of growth factors. Incubate approximately 24 hours at 37° C., 5% CO2. Each well will have 50 μl drug dilution, 50 μl growth factor or media, and 100 ul cells, =200 ul/well total. Thus the 4×concentrations of drugs and growth factors become 1× once everything has been added to the wells.
1. Add ^3 H-thymidine (Amersham; catalogue no. TRK-686) at 1 μCi/well (10 μl/well of 100 μCi/mL solution made up in RPMI media+10% heat-inactivated fetal bovine serum) and incubate ~24 h at 37° C., 5% CO2. RPMI is obtained from Gibco BRL, catalogue no. 11875-051.
1. Thaw plates and harvest with a 96-well plate harvester (Tomtec Harvester 96®) onto filter mats (Wallac; catalogue no. 1205-401); read counts on a Wallac Betaplate™ liquid scintillation counter.
(§1) The IC50 values were measured for several of the compounds of the invention.

Assay [2] concerns the target Myc-GyrB-FGFR fusion protein. The assay is described as follows: Assay measuring the kinase activity of the FGF receptor (Myc-GyrB-FGFR fusion protein). It counts as biochemical. The following applies: Table 5; 7 μM ATP. As to the method: The following protocol describes the reagents and procedures used to analyze protein tyrosine kinase activity of the Myc-GyrB-FGFR fusion protein.
5. Add 15 μg COS/FGFR cell lysate Myc-GyrB-FGFR sources per well in HNTG for a final volume of 100 μL per well. Incubate while shaking on a micro-liter plate shaker at room temperature for 2 hours.
9. At this point diluted Compounds/Extracts are added to the ELISA plate. Transfer 10 μL of diluted test and control wells from the polypropylene plate wells to the corresponding ELISA plate wells. Incubate while shaking on a micro-liter plate shaker at room temperature for 20 minutes.
10. Add 10 μL of 70 μM ATP diluted in kinase buffer to positive control and test wells (Final ATP concentration is 7 μM/well.) Add 10 μL of 1×kinase buffer to negative control wells. Incubate while shaking on a micro-liter plate shaker at room temperature for 15 min.
22. Read assay on Dynatech MR7000 ELISA Plate Reader.
as §1

The target in assay [3] is T1, PDGFr. In words: PDGF-induced BrdU incorporation assay. Details: expressed in transfected cells; host or cells: 3T3 cell line. It counts as cell-based.
Procedure: (8) 3T3 cell line genetically engineered to express human PDGF-R.
Cells were seeded at 8000 cells/well in DMEM, 10% CS, 2 mM Gln in a 96 well plate. Cells were incubated overnight at 37° C. in 5% CO2.
The negative control wells received serum free DMEM with 0.1% BSA only; the positive control cells received the ligand (PDGF) but no test compound.
The absorbance of the samples were measured at 410 nm (in "dual wavelength" mode with a filter reading at 490 nm, as a reference wavelength) on a Dynatech ELISA plate reader.
Another assay has as its target T2, src protein kinase (Gallus gallus, UniProt P00523).
T2 construct: made in house; host or cells: Schizosaccharomyces pombe (yeast transformed with src, lysate)
In words: Biochemical src assay - ELISA. The note with it: Table 6; 5 μM ATP, biotinylated peptide substrate. As to the method:
This assay is used to determine src protein kinase activity measuring phosphorylation of a biotinylated peptide as the readout.
h. […] S. Pombe strain SP200 (h-s leul.32 ura4 ade210) is grown as described and transformations are pRSP expression plasmids are done by the lithium acetate method (Superti-Furga, supra). Cells are grown in the presence of 1 μM thiamine to repress expression from the nmtl promoter or in the absence of thiamine to induce expression.
2. Add 0.08 mL Kinase Reaction Mixture per well (containing 10 μL of 10×Kinase Buffer and 10 μM (final concentration) biotin-[…] per well diluted in water.
3. Add 10 μL of compound diluted in water containing 10% DMSO and pre-incubate for 15 minutes at room temperature.
4. Start kinase reaction by adding 10 μL/well of 0.05 mM ATP in water (5 μM ATP final).
as §1

A further assay deals with T3, FLK-1 receptor (Mus musculus, UniProt P35918).
T3 construct: expressed in transfected cells; host or cells: NIH3T3 C7#3 cells
T3 sequence (P35918 20-1345): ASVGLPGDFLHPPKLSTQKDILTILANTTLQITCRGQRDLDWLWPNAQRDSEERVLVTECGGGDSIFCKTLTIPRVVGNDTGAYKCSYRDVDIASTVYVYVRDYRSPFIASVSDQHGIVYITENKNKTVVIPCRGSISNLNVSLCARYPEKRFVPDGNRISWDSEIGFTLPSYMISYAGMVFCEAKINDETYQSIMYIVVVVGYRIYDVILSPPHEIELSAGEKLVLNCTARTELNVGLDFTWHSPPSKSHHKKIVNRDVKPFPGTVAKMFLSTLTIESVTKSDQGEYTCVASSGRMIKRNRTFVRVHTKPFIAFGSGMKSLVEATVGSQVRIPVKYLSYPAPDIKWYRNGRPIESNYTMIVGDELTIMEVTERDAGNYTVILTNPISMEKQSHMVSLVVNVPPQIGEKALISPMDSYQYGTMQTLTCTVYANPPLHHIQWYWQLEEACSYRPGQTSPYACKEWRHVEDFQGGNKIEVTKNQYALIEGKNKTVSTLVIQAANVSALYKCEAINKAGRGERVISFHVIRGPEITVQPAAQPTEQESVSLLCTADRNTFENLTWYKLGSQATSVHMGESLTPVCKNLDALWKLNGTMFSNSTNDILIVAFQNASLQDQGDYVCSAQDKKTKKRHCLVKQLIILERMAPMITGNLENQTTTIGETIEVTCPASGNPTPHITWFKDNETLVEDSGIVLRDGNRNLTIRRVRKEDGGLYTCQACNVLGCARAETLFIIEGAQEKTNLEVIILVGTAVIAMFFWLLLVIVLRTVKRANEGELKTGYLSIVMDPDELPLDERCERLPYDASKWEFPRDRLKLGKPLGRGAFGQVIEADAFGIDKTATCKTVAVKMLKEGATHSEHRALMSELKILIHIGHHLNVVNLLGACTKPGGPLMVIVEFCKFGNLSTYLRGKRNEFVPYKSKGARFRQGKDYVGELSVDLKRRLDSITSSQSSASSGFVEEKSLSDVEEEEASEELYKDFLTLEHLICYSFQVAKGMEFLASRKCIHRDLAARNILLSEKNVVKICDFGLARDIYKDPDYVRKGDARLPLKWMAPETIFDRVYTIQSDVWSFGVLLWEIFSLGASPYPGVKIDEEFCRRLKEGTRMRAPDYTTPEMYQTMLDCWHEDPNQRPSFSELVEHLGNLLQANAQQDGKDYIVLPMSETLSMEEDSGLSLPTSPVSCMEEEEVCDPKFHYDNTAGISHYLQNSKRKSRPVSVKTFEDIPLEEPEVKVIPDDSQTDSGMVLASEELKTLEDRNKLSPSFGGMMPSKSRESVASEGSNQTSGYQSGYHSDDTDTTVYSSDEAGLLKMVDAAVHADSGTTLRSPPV
The assay is described as follows: FLK-1 ELISA (kinase activity of the FLK-1 receptor in engineered cells). It is filed as cell-based. The following applies: Table 3; VEGF-stimulated NIH3T3 C7#3 cells; read-out: FLK-1 IC50.

The mark [4] stands for this setting: Table 4, ligand-stimulated U1242 cells, read-out: PDGF-R IC50.
Setting [5] is: Table 8, BrdU incorporation, 3.8 nM PDGF, read-out: PDGFr IC50.

On to `COc1ccccc1-c1ccc2c(c1)NC(=O)C2=Cc1[nH]c2c(c1C)CCCC2` [6-(2-methoxyphenyl)-3-(3-methyl-4,5,6,7-tetrahydro-1H-indol-2-ylmethylene)-1,3-dihydro-indol-2-one], for which the IC50 was 95.7 µM at PDGFr [1] (setting [4]); over 50 µM at EGFr; over 50 µM with FGFr; over 12.5 µM with HUV-EC-C cells; over 100 µM in assay [2]; over 50 µM on PDGFr [3] (setting [5]).
As to `O=C1Nc2cc(O)ccc2C1=Cc1cc2c([nH]1)CCCC2` [6-hydroxy-3-(4,5,6,7-tetrahydro-1H-indol-2-ylmethylene)-1,3-dihydro-indol-2-one], the half-inhibitory concentration (IC50) on PDGFr [1] (setting [4]) was 47.2 µM; at EGFr, 12.6 µM; against src protein kinase, 21 µM; on FLK-1 receptor it was 17.1 µM; in the assay on FGFr, 6.21 µM; on PDGFr [3] (setting [5]), 0.51 µM.
Consider `CCOc1cccc(-c2ccc3c(c2)NC(=O)C3=Cc2cc3c([nH]2)CCCC3)c1` [6-(3-ethoxyphenyl)-3-(4,5,6,7-tetrahydro-1H-indol-2-ylmethylene)-1,3-dihydro-indol-2-one], for which the IC50 is over 100 µM at PDGFr [1] (setting [4]); over 50 µM against EGFr; over 50 µM with FGFr; over 25 µM in the assay with HUV-EC-C cells; over 20 µM in assay [2]; over 50 µM at PDGFr [3] (setting [5]).
As to `COc1ccc(-c2ccc3c(c2)NC(=O)C3=Cc2[nH]c3c(c2C)CCCC3)cc1` [6-(4-methoxyphenyl)-3-(3-methyl-4,5,6,7-tetrahydro-1H-indol-2-ylmethylene)-1,3-dihydro-indol-2-one], the IC50 at PDGFr [1] (setting [4]) was over 100 µM; at EGFr, over 50 µM; with FGFr it was over 50 µM; with HUV-EC-C cells, over 50 µM; in assay [2], over 100 µM; at PDGFr [3] (setting [5]), over 50 µM.
Consider `COc1ccc(-c2ccc3c(c2)NC(=O)C3=Cc2cc3c([nH]2)CCCC3)cc1` [6-(4-methoxyphenyl)-3-(4,5,6,7-tetrahydro-1H-indol-2-ylmethylene)-1,3-dihydro-indol-2-one], for which the IC50 on PDGFr [1] was 94 µM; on EGFr it was over 50 µM; in the assay with FGFr, over 50 µM; in the assay with HUV-EC-C cells, over 12.5 µM; in assay [2] it was over 100 µM; on PDGFr [3], over 50 µM.
With `Cc1c(C=C2C(=O)Nc3cc(Br)ccc32)[nH]c2c1CCCC2` [6-bromo-3-(3-methyl-4,5,6,7-tetrahydro-1H-indol-2-ylmethylene)-1,3-dihydro-indol-2-one], the IC50 at PDGFr [1] (setting [4]) is 40 µM; at FLK-1 receptor it was 2.19 µM; in assay [2] it was over 20 µM.
As to `O=C1Nc2cc(Cl)ccc2C1=Cc1cc2c([nH]1)CCCC2` [6-chloro-3-(4,5,6,7-tetrahydro-1H-indol-2-ylmethylene)-1,3-dihydro-indol-2-one], the IC50 at PDGFr [1] (setting [4]) is over 100 µM; in assay [2], over 20 µM.
In the case of `O=C1Nc2cc(Br)ccc2C1=Cc1cc2c([nH]1)CCCC2` [6-bromo-3-(4,5,6,7-tetrahydro-1H-indol-2-ylmethylene)-1,3-dihydro-indol-2-one], the IC50 was over 100 µM on PDGFr [1] (setting [4]) and over 20 µM in assay [2].
For `COc1cccc(-c2ccc3c(c2)NC(=O)C3=Cc2cc3c([nH]2)CCCC3)c1` [6-(3-methoxyphenyl)-3-(4,5,6,7-tetrahydro-1H-indol-2-ylmethylene)-1,3-dihydro-indol-2-one], the IC50 was over 100 µM on PDGFr [1] (setting [4]); 31.8 µM at EGFr; over 20 µM at FLK-1 receptor; over 50 µM with FGFr; over 50 µM with HUV-EC-C cells; over 50 µM at PDGFr [3] (setting [5]).
As to `COc1ccccc1-c1ccc2c(c1)NC(=O)C2=Cc1cc2c([nH]1)CCCC2` [6-(2-methoxyphenyl)-3-(4,5,6,7-tetrahydro-1H-indol-2-ylmethylene)-1,3-dihydro-indol-2-one], the IC50 at PDGFr [1] is 12.3 µM; against EGFr it was 34.1 µM; in the assay with FGFr, 43.6 µM; with HUV-EC-C cells, 14.6 µM; in assay [2], over 100 µM; against PDGFr [3], 1.06 µM.
Take `Cc1cc(Br)c2c(c1)C(=Cc1cc3c([nH]1)CCCC3)C(=O)N2` [7-bromo-5-methyl-3-(4,5,6,7-tetrahydro-1H-indol-2-ylmethylene)-1,3-dihydro-indol-2-one]: the IC50 on PDGFr [1] (setting [4]) was 5.56 µM; on FLK-1 receptor, over 2.5 µM.
Regarding `O=C1Nc2cc(-c3ccccc3)ccc2C1=Cc1cc2c([nH]1)CCCC2` [6-phenyl-3-(4,5,6,7-tetrahydro-1H-indol-2-ylmethylene)-1,3-dihydro-indol-2-one], the IC50 on PDGFr [1] (setting [4]) is 70.6 µM; at EGFr, over 50 µM; in the assay on FGFr it was over 50 µM; in the assay with HUV-EC-C cells it was over 12.5 µM; in assay [2], over 100 µM; on PDGFr [3] (setting [5]) it was over 50 µM.
Regarding `COc1ccc2c(c1)NC(=O)C2=Cc1cc2c([nH]1)CCCC2` [6-methoxy-3-(4,5,6,7-tetrahydro-1H-indol-2-ylmethylene)-1,3-dihydro-indol-2-one], the IC50 on EGFr and with FGFr was over 50 µM in each case.
Turning to `COc1cccc(-c2ccc3c(c2)NC(=O)C3=Cc2[nH]c3c(c2C)CCCC3)c1` [6-(3-methoxyphenyl)-3-(3-methyl-4,5,6,7-tetrahydro-1H-indol-2-ylmethylene)-1,3-dihydro-indol-2-one], the IC50 was 5.83 µM on PDGFr [1] (setting [4]), over 5 µM on FLK-1 receptor and over 20 µM in assay [2].

For orientation: IC50 means the midpoint of a concentration-inhibition curve.
